Values joined by “and” are separate entries in the source; they are usually repeats but may differ in a detail not shown here. Equal entries are not always repeated.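 Dose response: 5 concentrations. Exposure: 48 h. Format: 96-well plates. Endpoint: linear interpolation; highest concentration if not reached. GI50: concentration for 50% inhibition of growth. At the TGI there is no net growth.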
How the values were obtained:
Assay in all cases: NCI tumour cell line growth inhibition, 48 h
[1] = tested on: SR leukemia
[2] = tested on: TK-10 renal
[3] = tested on: M14 melanoma
[4] = tested on: HOP-18 NSCLC
[5] = tested on: 786-0 renal
[6] = tested on: BT-549 breast
[7] = tested on: T-47D breast
[8] = tested on: MDA-MB-231 breast
[9] = tested on: MDA-N
[10] = tested on: P388/ADR leukemia
[11] = tested on: DMS 114 small cell lung
[12] = tested on: MDA-MB-435
[13] = tested on: NCI-H460 lung
[14] = tested on: KM12 colon
[15] = tested on: RPMI-8226 leukemia
[16] = tested on: CCRF-CEM leukemia
[17] = tested on: SNB-78 CNS
[18] = tested on: SNB-75 CNS
[19] = tested on: NCI-H226 lung
[20] = tested on: DMS 273 small cell lung
[21] = tested on: EKVX NSCLC
[22] = tested on: M19-MEL melanoma
[23] = tested on: SK-OV-3 ovarian
[24] = tested on: IGROV1 ovarian
[25] = tested on: UACC-62 melanoma
[26] = tested on: HOP-62 NSCLC
[27] = tested on: DLD-1 colon
[28] = tested on: OVCAR-5 ovarian
[29] = tested on: SW-620 colon
[30] = tested on: SK-MEL-5 melanoma
[31] = tested on: RXF-631 renal
[32] = tested on: LOX IMVI melanoma
[33] = tested on: SF-268 CNS
[34] = tested on: MOLT-4 leukemia
[35] = tested on: OVCAR-8 ovarian
[36] = tested on: LXFL 529 NSCLC
[37] = tested on: HT29 colon
[38] = tested on: A549 NSCLC
[39] = tested on: HL-60(TB) leukemia
[40] = tested on: UACC-257 melanoma
[41] = tested on: UO-31 renal
[42] = tested on: SF-539 CNS
[43] = tested on: U251 CNS
[44] = tested on: MALME-3M melanoma
[45] = tested on: XF 498 CNS
[46] = tested on: HCC-2998 colon
[47] = tested on: OVCAR-4 ovarian
[48] = tested on: A498 renal
[49] = tested on: CAKI-1 renal
[50] = tested on: K-562 leukemia
[51] = tested on: RXF 393 renal
[52] = tested on: NCI-H522 lung
[53] = tested on: HOP-92 NSCLC
[54] = tested on: KM20L2 colon
[55] = tested on: SN12C renal
[56] = tested on: SF-295 CNS
[57] = tested on: COLO 205 colon
[58] = tested on: SK-MEL-2 melanoma
[59] = tested on: OVCAR-3 ovarian
[60] = tested on: NCI-H23 lung
[61] = tested on: SNB-19 CNS
[62] = tested on: HCT-15 colon
[63] = tested on: HCT-116 colon
[64] = tested on: ACHN renal

COC1C(O)CC(OC2CC(Oc3cc4cc5c(c(O)c4c(O)c3C)C(=O)[C@@H](OC3CC(OC4CC(OC6CC(C)(O)C(OC(C)=O)C(C)O6)C(O)C(C)O4)C(O)C(C)O3)[C@H]([C@H](OC)C(=O)[C@@H](O)[C@@H](C)O)C5)OC(C)C2OC(C)=O)OC1C (stereo partly specified)
GI50 [1]: 0.0252 nM | TGI [1]: 0.000152 µM | GI50 [2]: < 0.0155 µM | TGI [2]: 0.0033 µM | GI50 [3]: 0.0189 nM | TGI [3]: 0.000105 µM | GI50 [4]: 0.0164 nM | GI50 [5]: 0.000213 µM | TGI [6]: 0.0597 nM | GI50 [7]: 0.0356 nM | TGI [7]: 0.00182 µM and < 0.215 µM | GI50 [8]: 0.0101 µM | TGI [8]: 0.000467 µM and < 0.0234 µM | TGI [9]: 0.000192 µM and < 0.0107 µM | GI50 [10]: 0.106 µM | TGI [10]: 9.49 µM and 8.82 µM | GI50 [11]: 0.00328 µM | TGI [12]: 0.000167 µM

Fc1cccc(Cl)c1C1SCc2nc3ccccc3n21 (stereo unspecified)
TGI [13]: > 100 µM | TGI [14]: 59.5 µM | TGI [1]: 54.4 µM | TGI [15]: 60.2 µM | TGI [2]: > 100 µM | TGI [16]: > 100 µM | TGI [17]: 73.8 µM | TGI [18]: > 100 µM | TGI [19]: > 100 µM | TGI [20]: 57.9 µM | TGI [21]: > 100 µM | TGI [22]: 89 µM | TGI [23]: 62.2 µM | TGI [3]: > 100 µM | TGI [24]: > 100 µM | TGI [25]: 37.5 µM | TGI [26]: > 100 µM | TGI [27]: > 100 µM | TGI [4]: > 100 µM | TGI [28]: > 100 µM | TGI [5]: > 100 µM | TGI [29]: > 100 µM | TGI [30]: 29.7 µM | TGI [31]: > 100 µM | TGI [32]: 38 µM | TGI [33]: > 100 µM | TGI [34]: 52.1 µM | TGI [35]: > 100 µM | TGI [36]: > 100 µM | TGI [37]: > 100 µM | TGI [38]: > 100 µM | TGI [39]: 33.2 µM | TGI [40]: 72.7 µM | TGI [41]: > 100 µM | TGI [42]: 44.4 µM | TGI [43]: 89.7 µM | TGI [44]: 45.8 µM | TGI [45]: 66.1 µM | TGI [46]: > 100 µM | TGI [47]: > 100 µM | TGI [48]: > 100 µM | TGI [49]: > 100 µM | TGI [50]: > 100 µM | TGI [51]: > 100 µM | TGI [52]: 87 µM | TGI [53]: 37.8 µM | TGI [54]: 49.7 µM | TGI [55]: > 100 µM | TGI [56]: 95.2 µM | TGI [57]: 47.3 µM | TGI [58]: 51 µM | TGI [59]: 53.2 µM | TGI [60]: 80.4 µM | TGI [61]: > 100 µM | TGI [11]: 65.6 µM | TGI [62]: > 100 µM | TGI [63]: 55.1 µM | TGI [64]: > 100 µM

— PubChem BioAssay (NCI)
